Melting point data for 40 molecules are collected here from patent US6444668B1 (Wyeth, priority 1999, dated 2002).

For orientation: melting point means the temperature of the solid-liquid transition.

SMILES strings stand for the structures.

As for `CC1(c2ccccc2)OC(=O)Nc2ccc(-c3cccc(Cl)c3)cc21` (stereo not shown) [Example 39, 6-(3-Chlorophenyl)-4-methyl-4-phenyl-1,4dihydro-benzo[d][1,3]oxazin-2-one], the melting point is 179 to 180 °C.

Molecule `CC1(C)OC(=O)Nc2ccc(-c3cccc([N+](=O)[O-])c3)cc21` [Example 13, 4,4Dimethyl6-(3-nitrophenyl)-1,4dihydrobenzo[d][1,3]oxazin-2-one] yielded a melting point of 244 to 245 °C.

`CC1(C)OC(=O)Nc2ccc(-c3ccc(CC#N)c(F)c3)cc21` [Example 135, 4-(4,4Dimethyl-2-oxo-1,4-dihydro-2H-benzo[d][1,3]oxazin-6yl)-2-fluorophenylacetonitrile] registered a melting point of 253 to 256 °C.

Molecule `Cn1c(-c2ccc3c(c2)C(C)(C)OC(=O)N3)ccc1[N+](=O)[O-]` [Example 99, 4,4-Dimethyl-6-(1-methyl-5-nitro-1H-pyrrol-2-yl)-1,4-dihydro-benzo [d][1,3]oxazin-2-one] displayed a melting point of 180 to 185 °C.

In the case of `O=C1Nc2ccc(-c3cccc(Cl)c3)cc2C(c2ccccc2)O1` (stereo not shown) [Example 11, 6-(3-Chloro-phenyl)-4-phenyl-1,4-dihydro-benzo [d][1,3]oxazin-2-one], the melting point lay in the range of 177 to 178 °C.

For `CN1C(=O)OC(C)(C)c2cc(-c3cc(F)cc(Br)c3)ccc21` [Example 45, 6-(3-Bromo-5fluorophenyl)-1,4,4-trimethyl-1,4-dihydrobenzo[d][1,3]oxazin-2-one], the melting point fell in the range of 157 to 158 °C.

Molecule `CC1(C)OC(=O)Nc2c(F)cc(-c3csc(C#N)c3)cc21` [Example 88, 4-(8-Fluoro-4,4-dimethyl-2-oxo-1,4-dihydro-2H-benzo[d][1,3]oxazin-6-yl)-thiophene-2-carbonitrile] had a melting point of 250 to 251 °C.

For the molecule `CC1(C)OC(=O)Nc2ccc(-c3ccccc3Cl)cc21` [Example 7, 6-(2-Chloro-phenyl)-4,4-dimethyl-1,4-dihydro-benzo[d][1,3]oxazin-2-one], the melting point is 181 to 182 °C.

Regarding `CC1(C)OC(=O)Nc2ccc(-c3ccc[nH]3)cc21` [Example 97, 4,4-Dimethyl-6-(1H-pyrrol-2yl)-1,4-dihydro-benzo[d][1,3]-oxazin-2one], the melting point was 202 °C (dec.).

`CCC1(CC)NC(=O)Oc2ccc(-c3cccc(Cl)c3)cc21` [Example 25, 6-(3-Chlorophenyl)-4,4-diethyl-1,4-dihydrobenzo[d][3,1]oxazin-2-one] showed a melting point of 150 to 151 °C.

`Cn1cccc1-c1ccc2c(c1)C(C)(C)OC(=O)N2` [Example 98, 4,4-Dimethyl-6-(1-methyl-1H-pyrrol-2-yl)-1,4-dihydro-benzo[d][1,3]oxazin-2-one] yielded a melting point of 230 °C.

In turn, `CC1(C)OC(=O)Nc2c(F)cc(-c3cc(F)cc(C#N)c3)cc21` [Example 89, 3-Fluoro-5-(8-fluoro-4,4dimethyl-2-oxo-1,4-dihydro-2H-benzo[d][1,3]oxazin-6-yl)-benzonitrile] returned a melting point of 256 to 257 °C.

For the molecule `CC1(C)OC(=O)Nc2ccc(-c3cc(Cl)cc(C#N)c3)cc21` [Example 78, 3-Chloro-5(4,4-dimethyl-2-oxo-1,4-dihydro-2H-benzo[d][1,3]oxazin-6-yl)-benzonitrile], the melting point was in the range of 256 to 257 °C.

In the case of `CC1(C)OC(=O)Nc2ccc(-c3cccc(C#C[Si](C)(C)C)c3)cc21`, the melting point was 240 to 242 °C.

As to `COc1cccc(-c2ccc3c(c2)NC(=O)OC3(C)C)c1` [Example 49, 7-(3-Methoxy-phenyl)-4,4-dimethyl-1,4-dihydro-benzo[d][1,3]-oxazin-2-one], the melting point was in the range of 167 to 168 °C.

`CC1(C)OC(=O)Nc2ccc(-c3cccc(C#N)c3F)cc21` [Example 120, 3-(4,4-Dimethyl-2-oxo-1,4-dihydro-2H-benzo[d][1,3]oxazin-6-yl)-2fluoro-benzonitrile] returned a melting point of 192 to 198 °C.

`CCN1C(=O)OC(C)(C)c2cc(-c3cc(F)cc(C#N)c3)ccc21` [Example 131, 3-(1-Ethyl-4,4-dimethyl-2-oxo-1,4-dihydro-2H-benzo[d][1,3]oxazin-6-yl)-5-fluoro-benzonitrile]: the melting point was in the range of 154 to 155 °C.

Molecule `N#Cc1cc(F)cc(-c2ccc3c(c2)C2(CCCCC2)OC(=O)N3)c1` [Example 107, 3-(1,2-Dihydro-2-oxospiro[4H-3,1-benzoxazine-4,1-cyclohexan]-6-yl)-5-fluorobenzonitrile] returned a melting point of 250 to 253 °C.

For the molecule `COc1cc(-c2cc(F)cc(C#N)c2)cc2c1NC(=O)OC2(C)C` [Example 128, 3-(4,4-Dimethyl-8-methoxy-2-oxo-1,4-dihydro-2H-3,1-benzoxazin-6-yl)-5-fluorobenzonitrile], the melting point is 252 to 253 °C.

For the molecule `O=C1Nc2ccc(-c3cccc(Cl)c3)cc2C2(CCCC2)O1` [Example 31, 6-(3-Chlorophenyl)-spiro-[4H-3,1-benzoxazine-4,1′-cyclopentane]-2(1H)-one], the melting point lay within 140 to 145 °C.

In the case of `CC1(C)OC(=O)Nc2ccc(-c3cccc(CC#N)n3)cc21` [Example 132, [6-(4,4-dimethyl-2-oxo-1,4dihydro-2H-3,1-benzoxazin-6-yl)pyridin-2-yl]acetonitrile], the melting point lay within 210 to 212.5 °C.

`CC1(C)OC(=O)Nc2c(O)cc(-c3cc(F)cc(C#N)c3)cc21` [Example 129, 3-(4,4-Dimethyl-8-hydroxy-2-oxo-1,4-dihydro-2H-3,1-benzoxazin-6yl)-5-fluorobenzonitrile] returned a melting point of 197 to 198 °C.

Take `COc1cc(C#N)cc(-c2ccc3c(c2)C(C)(C)OC(=O)N3)c1` [Example 63, 3-(4,4-Dimethyl-2-oxo-1,4-dihydro-2H-benzo[d][1,3]oxazin-6-yl)-5-methoxy-benzonitrile]: the melting point was 254 to 255 °C.

In the case of `COCN1C(=O)OC(C)(C)c2cc(-c3cc(F)cc(C#N)c3)ccc21` [Example 67, 3-Fluoro-5(1-methoxymethyl-4,4-dimethyl-2-oxo-1,4-dihydro-2H-benzo[d][1,3]oxazin-6-yl)-benzonitrile], the melting point was in the range of 169 to 171 °C.

Consider `CCC1OC(=O)Nc2ccc(-c3cccc(Cl)c3)cc21` (stereo not shown) [Example 10, 6-(3-Chloro-phenyl)-4-ethyl-1,4-dihydro-benzo[d][1,3]oxazin-2-one], for which the melting point fell in the range of 146 to 148 °C.

`CC1(C)OC(=O)Nc2ccc(-c3cc(C#N)cs3)cc21` [Example 90, 5-(4,4-Dimethyl-2-oxo-1,4-dihydro-2H-benzo[d][1,3]oxazin-6-yl)thiophene-3-carbonitrile] had a melting point of 255 to 260 °C.

As for `N#Cc1cc(-c2ccc3c(c2)C(C2CC2)(C2CC2)OC(=O)N3)cs1` [Example 53, 4-(4,4-Dicyclopropyl-2-oxo-1,4-dihydro-2H-benzo[d][1,3]oxazin-6yl)-thiophene-2-carbonitrile], the melting point lay within 244 to 245 °C.

In turn, `N#Cc1cccc(-c2ccc3c(c2)C2(CCCCC2)OC(=O)N3)c1` [Example 106, 3-(1,2-Dihydro-2-oxospiro[4H-3,1-benzoxazine-4,1-cyclohexan]-6-yl)-benzonitrile] gave a melting point of 245 to 247 °C.

`CC1(C)OC(=O)Nc2ccc(-c3cc(Br)cc(OC(F)(F)F)c3)cc21` [Example 57, 6-(3-Bromo-5-trifluoromethoxy-Phenyl)-4,4-dimethyl-1,4-dihydrobenzo[d][1,3]-oxazin-2-one]: the melting point fell in the range of 214 to 216 °C.

With `CC(C)(C)OC(=O)N1C(=O)OC(C)(C)c2cc(-c3cc(F)cc(C#N)c3)ccc21` [Example 86, 6-(3-Cyano-5fluoro-phenyl)-4,4-dimethyl-2oxo-4H-benzo[d][1,3]oxazine-1-carboxylic acid tert-butyl ester], the melting point lay in the range of 139 to 140 °C.

The molecule `CC1(C)OC(=O)Nc2ccc(-c3cc(F)cc(CC#N)c3)cc21` [Example 133, 3-(4,4Dimethyl-2-oxo-1,4-dihydro-2H-benzo[d][1,3]-oxazin-6-yl)-5-fluoro-phenylacetonitrile] gave a melting point of 218 to 220 °C.

Consider `CC1(C)OC(=O)Nc2ccc(-c3cccc(CC#N)c3)cc21` [Example 118, 3-(4,4Dimethyl-2-oxo-1,4-dihydro-2H-benzo[d][1,3]-oxazin-6-yl)phenylacetonitrile], for which the melting point fell in the range of 188 to 190 °C.

`CC1OC(=O)Nc2ccc(-c3cccc(F)c3)cc21` (stereo not shown) [Example 127, 6-(3-Fluorophenyl)-4-methyl-1,4-dihydro-2H-3,1-benzoxazin-2-one] gave a melting point of 160 to 161 °C.

Molecule `CC1(C)OC(=O)Nc2ccc(-c3cccc(-c4nccs4)c3)cc21` [Example 81, 4,4-Dimethyl-6(3-thiazol-2-yl-phenyl)-1,4-dihydro-benzo[d][1,3]oxazin-2-one] gave a melting point of 223 to 224 °C.

In turn, `CCc1cc(C#N)sc1-c1ccc2c(c1)C(C)(C)OC(=O)N2` [Example 111, 5(4,4-Dimethyl-2-oxo-1,4-dihydro-2H-benzo[d][1,3]oxazin-6-yl)-4-ethyl-thiophene-2-carbonitrile] had a melting point of 160 to 162 °C.

With `COc1ccc(-c2ccc3c(c2)C(C)(C)OC(=O)N3)cc1F` [Example 138, 6-(3-Fluoro-4-methoxy-phenyl)4,4-dimethyl-1,4-dihydro-benzo[d][1,3]-oxazin-2-one], the melting point is 210 to 211 °C.

For the molecule `CCCc1cc(C#N)sc1-c1ccc2c(c1)C(C)(C)OC(=O)N2` [Example 112, 5-(4,4-Dimethyl-2-oxo-1,4-dihydro-2H-benzo[d][1,3]oxazin-6-yl)4-n-propyl-thiophene-2-carbonitrile], the melting point lay in the range of 160 to 162 °C.

On to `CCOC(OCC)N1C(=O)OC(C)(C)c2cc(-c3cc(F)cc(C#N)c3)ccc21` [Example 66, 3(1-Diethoxymethyl-4,4-dimethyl-2-oxo-1,4-dihydro-2H-benzo[d][1,3]oxazin-6-yl)-5-fluoro-benzonitrile], for which the melting point lay in the range of 123 to 124 °C.

On to `N#Cc1cc(-c2ccc3c(c2)C2(CCCCC2)OC(=O)N3)cs1` [Example 108, 4-(1,2-Dihydro-2-oxospiro[4H-3,1-benzoxazine-4,1-cyclohexan]-6-yl)2-thiophenecarbonitrile], for which the melting point lay in the range of 230 to 232 °C.

As for `CC1(C)OC(=O)Nc2ccc(-c3cccc(F)c3F)cc21` [Example 130, 6-(2,3-Difluoro-phenyl)-4,4dimethyl-1,4-dihydro-benzo[d][1,3]oxazin-2-one], the melting point is 166 to 167 °C.
